The text below walks through data of patent EP1655608A1, “CFTR as a component of an autophagy signaling pathway, applications thereof to autophagic diseases, and determination of cystic fibrosis as an autophagic disease” (priority 2004, dated 2006).

“Also recorded” adds a separate entry of the source.

The subject of one test is p38. The following applies: Lindane-treated cells; ref (38); cited from earlier work.
The test system of another test is renal cells. The experiment in a line: Lindane-induced autophagic vacuolation of renal cells (electron microscopy). In kind it is cell-based, mouse. The method, then:
To address the importance of CFTR in autophagy, renal cells derived from distal tubules or the proximal convoluted tubules of Wild type (WT or CFTR^+/+) or CFTR deficient (CFTR^-/-) mice (40) were isolated and immortalized with the pSV3 neo vector, as described below (55).
The ultrastructural changes caused by Lindane or starvation in Sertoli and renal cells were analysed by transmission electron microscopy, as previously described (57). Briefly, control and Lindane-treated cells (50 µM, 24 h) were scraped from the culture dish in PBS EDTA 1mM, pelleted and fixed with ice-cold 2.5% glutaraldehyde (TAAB, #G004) in 0.1 M Na cacodylate, pH 7.4 for at least 1 h at 4°C. Cell pellets were then rinsed in cacodylate buffer, postfixed in 1% OsO4 for 1 h at 4°C, dehydrated through graded ethanol washes, and embedded in epoxy resin. Oriented […] sections were obtained with diamond knives, and representative areas were chosen for ultra-thin sectioning. Thin […] sections were mounted on copper mesh grids, stained with uranyl acetate and lead citrate, and examined on a JEOL 1200 EXII electron microscope. 30-50 micrographs were taken randomly from each sample at primary magnification × 10,000.

The next test deals with CFTR Cl^- channel (Mus musculus, UniProt P26361). Kind of test: Whole-cell patch-clamp Cl- currents in Sertoli cells. In kind it is cell-based. Details: endogenous in cells; host or cells: Sertoli 42GPA9 cell line (mouse). The method, then: Whole cell currents were monitored from Sertoli cells, CFTR^-/- and WT renal epithelial cells with an RK 400 amplifier (Biologic, Münster, Germany) as previously described (40). The bath (extracellular) solution consisted of 140 mM NMDGCl (N-methyl-D-glucamine chloride), 5 mM D-Glucose, 1 mM CaCl2, and 10 mM HEPES, pH 7.4. Patch pipette (intracellular) solution contained 140 mM NMDGCl, 5 mM D-Glucose, 5 mM EGTA, 5 mM MgATP, and 10 mM HEPES, pH 7.4. Osmolarity of both solutions was adjusted to 280 mOSM by adding mannitol. These solutions were designed to study Cl^- currents because Cl^- is the sole permeant ion in these conditions and to prevent Ca^2+ activated Cl^- currents by the addition of EGTA in the patch solution. After establishment of whole cell configuration, cells were stimulated by the addition of Lindane (50 µM), FSK (10 µM), vehicle (Me2S0 or ethanol) in the absence or the presence of NPPB (0.1mM), DIDS (4,4'-diisothiocyanatostilbene-2,2'-disulfonic acid, 1 mM, Sigma), glibenclamide (0.1mM, Sigma) or PD98059 (10 µM) in the bath solution. The cell membrane potential was clamped at -50mV and 400 ms pulses were applied from -100 to +120 mV with increments of 20 mV every 2 s. To generate whole cell current-voltage (I-V) relationship, membrane currents resulting from voltage stimuli were recorded for at least 3 min and analysed using an IBM-AT-compatible computer equipped with Digidata 1200 interface (Axon Instruments) and pCLAMP software (versions 5.51 and 6.0, Axon Instruments), respectively. Statistics-Results are expressed as mean ± S.E. of n observations using the Student's t test.

A further test has as its system p42^ERK2 and p44^ERK1. The experiment in a line: ERK activation by anti-phospho-ERK Western blotting of cell lysates. It is filed as cell-based, mouse. From the text:
After stripping, equal loadings of proteins were verified by reprobing the blots with anti-ERK1 (Santa Cruz Biotechnology).

A further test deals with PKA. The experiment in a line: CREB phosphorylation as readout of PKA activity. It is filed as cell-based. From the text: The emerging issue is therefore how Lindane could activate CFTR Cl^- currents. One possibility would be that Lindane directly activates CFTR, but this appears unlikely because it required minutes instead of seconds to increase Cl^- conductance. […] To further explore this hypothesis, we tested the effect of Lindane on the renal proximal cell line (PCT1). […] Of particular interest, we provide several lines of evidence that the CFTR Δex10 channels remained functional in response to Lindane in PCT cells. […] These finding provide the first evidence that an agonist, e.g. Lindane, could activate CFTR Cl- current independently of PKA, raising the promise for new strategies using Lindane to restore Cl-conductance in cystic fibrosis patients with CFTR variants on PKA sites.

CFTR Cl^- channel, sequence (P26361 whole entry): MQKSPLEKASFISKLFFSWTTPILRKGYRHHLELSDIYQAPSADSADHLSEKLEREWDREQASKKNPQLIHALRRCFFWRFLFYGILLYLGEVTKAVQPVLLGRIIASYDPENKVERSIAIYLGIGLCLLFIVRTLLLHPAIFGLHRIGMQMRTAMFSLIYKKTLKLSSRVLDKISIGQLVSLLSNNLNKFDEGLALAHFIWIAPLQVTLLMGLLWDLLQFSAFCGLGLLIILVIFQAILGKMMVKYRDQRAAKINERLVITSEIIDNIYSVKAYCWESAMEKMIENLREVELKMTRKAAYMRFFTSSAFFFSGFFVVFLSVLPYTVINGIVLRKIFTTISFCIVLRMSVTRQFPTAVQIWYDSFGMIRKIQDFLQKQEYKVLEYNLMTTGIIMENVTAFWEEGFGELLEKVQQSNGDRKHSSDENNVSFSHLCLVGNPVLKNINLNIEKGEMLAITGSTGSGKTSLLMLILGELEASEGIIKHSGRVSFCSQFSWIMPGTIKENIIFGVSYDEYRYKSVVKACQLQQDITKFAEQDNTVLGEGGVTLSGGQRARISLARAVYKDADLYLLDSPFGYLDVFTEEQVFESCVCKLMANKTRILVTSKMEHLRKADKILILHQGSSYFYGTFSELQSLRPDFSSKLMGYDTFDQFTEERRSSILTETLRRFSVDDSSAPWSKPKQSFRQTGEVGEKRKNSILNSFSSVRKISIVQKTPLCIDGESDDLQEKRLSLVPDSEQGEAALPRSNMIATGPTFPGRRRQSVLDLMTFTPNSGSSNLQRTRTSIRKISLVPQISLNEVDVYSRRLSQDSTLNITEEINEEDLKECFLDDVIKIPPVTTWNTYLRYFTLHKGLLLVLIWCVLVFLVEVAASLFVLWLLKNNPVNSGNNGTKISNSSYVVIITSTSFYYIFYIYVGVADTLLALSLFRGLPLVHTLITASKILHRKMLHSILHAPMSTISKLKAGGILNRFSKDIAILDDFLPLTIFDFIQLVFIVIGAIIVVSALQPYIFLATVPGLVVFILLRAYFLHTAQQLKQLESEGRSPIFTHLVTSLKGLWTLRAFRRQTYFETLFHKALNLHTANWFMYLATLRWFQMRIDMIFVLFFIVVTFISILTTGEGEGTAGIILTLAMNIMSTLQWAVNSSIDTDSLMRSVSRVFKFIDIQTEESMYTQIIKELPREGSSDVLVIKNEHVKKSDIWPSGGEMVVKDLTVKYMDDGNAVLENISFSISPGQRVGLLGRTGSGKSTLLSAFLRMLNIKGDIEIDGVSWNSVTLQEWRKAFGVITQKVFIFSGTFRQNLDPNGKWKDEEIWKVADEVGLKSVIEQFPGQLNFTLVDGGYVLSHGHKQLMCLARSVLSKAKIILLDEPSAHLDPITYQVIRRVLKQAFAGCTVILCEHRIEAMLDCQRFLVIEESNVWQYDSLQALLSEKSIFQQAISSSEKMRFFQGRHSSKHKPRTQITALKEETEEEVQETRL

For `Cl[C@H]1[C@H](Cl)[C@@H](Cl)[C@@H](Cl)[C@H](Cl)[C@H]1Cl` [Lindane, γ-hexachlorocyclohexane], in the test with p38, the “activation of Jun kinases or p38” value was “not activated”. The “autophagic vacuolation in CFTR-expressing renal cells” value in the test with renal cells (CFTR^+/+ renal cells) was “could be generalized to renal cells, provided CFTR was expressed”. The “response in renal cells lacking CFTR expression” value in the test with renal cells (CFTR^-/- renal cells) is “dramatic accumulation of lamellar structures and little if any large autophagic vacuoles”. In addition, the “anion selectivity sequence of induced currents” value on CFTR Cl^- channel is “Br^-≥ Cl^->>I^-”. Moreover, the “Cl^- conductance across plasma membrane” value on CFTR Cl^- channel (Lindane 50 µM) is “increased within minutes”. Also, the “reversal potential of induced currents” value at CFTR Cl^- channel (symmetrical Cl- solutions) is reported as ~ 0 mV. Besides, the “ERK stimulation in CFTR^-/- cells” value with p42^ERK2 and p44^ERK1 (CFTR^-/- renal cells) is reported as “still stimulated”. Moreover, the “duration of ERK activation” value with p42^ERK2 and p44^ERK1 (Sertoli cells, Lindane) is listed as “more than 24 h”. The “ERK activation in Sertoli cells” value in the test on p42^ERK2 and p44^ERK1 (Sertoli cells, Lindane 50 µM, DDT 1.8 µM, Bϕ 90 µM, PCP 15 µM) is “rapid and sustained activation of both p42^ERK2 and p44^ERK1; also recorded: induced the activation of both p42^ERK2 and p44^ERK1”. For the same compound, the CREB phosphorylation entry in the test with PKA (Lindane treatment) is given as “dramatic phosphorylation of CREB”. Besides, in the test with PKA (concluded from H89 experiment), the PKA activation result is on record as “did not activate PKA”.
